Experimental data from patent publication US4269848A, “5-Substituted indan-2-carboxylic acid and functional derivatives” (Lipha, Lyonnaise Industrielle Pharmaceutique, priority 1976, dated 1981).

Key:
platelet aggregation = assay: Experiment C: clinical case studies, platelet anti-aggregation activity, oral administration; format: in vivo
Protocol: (§1) The following clinical experimentation was carried out to clinically test various compounds in accordance with the present invention for their anti-inflammatory, analgesic and platelet aggregation or clumping inhibition activites.
The following case studies relate to the platelet anti-aggregation activity associated with the oral administration of 2'-(N,N-diethylaminoethyl) 5-(2'-thenoyl)-indan-2-carboxylate.

[1] = Acute toxicity, LD 50 (oral route), mice; conditions: mouse, in vivo
Description: A--The substances are of low toxicity. For example, the LD 50 value (oral route), determined in mice, of various compounds in accordance with the present invention are shown in column A of Table I.

[2] = system: spasms of pain caused by the intraperitoneal injection of a solution of acetic acid; assay: Analgesic activity, acetic acid induced spasms of pain (Koster et al.); format: in vivo; conditions: mouse, oral; dose reducing spasms of pain by 50%; read-out: AD50, Acetic Acid
Protocol: B--Analgesic activity in the mouse was determined by the method of Koster et al. (Fed. Proc. 1959, Vol. 18, page 412). The active dose 50 (AD50) value for various compounds in accordance with the present invention was determined, namely, that dose which, when administered orally, reduces by 50% the spasms of pain caused by the intraperitoneal injection of a solution of acetic acid.

[3] = system: carrageenin-induced edema; assay: Anti-inflammatory activity, carrageenin-induced edema test (Winter et al.); format: in vivo; conditions: rat, oral; dose inhibiting edema by 30%; read-out: AD30, Carrageenin
Description: The protection afforded, by oral administration of the compound to a rat against edema induced by injecting a suspension of carrageenin under the arch of the foot of the animal was investigated. The AD30 dose is that which inhibits the edema by 30%.

[4] = system: erythema produced by ultra violet radiation; assay: Protective effect against erythema from ultra violet radiation (Winder et al.); format: in vivo, albino guinea pigs; conditions: Cavia porcellus; albino guinea pig, oral; amount reducing erythema by 50%; read-out: AD50, U.V.
Protocol: D--The protective effect against inflammation resulting from exposure to radiation was determined in albino guinea pigs using the method of Winder et al (Arch. Inv. Pharmacodyn. 1958, Vol. 116, page 261). The AD50 value was determined for the test substance, namely the amount which, when administered to the animal orally, reduced by 50% the erythema produced by exposing the shaved dorsal skin of the guinea pig to ultra violet radiation.

platelets = assay: In vitro inhibition of platelet aggregation induced by collagen (Born); format: cell-based; conditions: read-out: minimal active concentration, Platelet Aggregation Induced By Collagen
Protocol: E--The anti-inflammatory activity was also determined by the aggregation-inhibiting effect of the compounds in accordance with the present invention, in vitro, on platelets the aggregation of which was induced by collagen, in accordance with the method of Born (Journal of Physiology, 1962, Vol. 162, page 67). It is known that compounds which inhibit the activity or quantity of prostaglandin synthetase will inhibit the formation of prostaglandin PGE2 and the inflammatory and pyretic effect thereof. Since prostaglandin PGE2 also causes an increase in platelet aggregation, this test is an effective indication of anti-inflammatory and anti-pyretic activity due to inhibition of prostaglandin synthetase.

[5] = Experiment B: clinical case studies, analgesic activity, oral administration; format: in vivo; conditions: for Tolerance, Biological / Tolerance, Clinical: NAD = Nothing Abnormal Discovered
Protocol: as §1
The following case studies relate to the analgesic activity associated with the oral administration of methyl 5-(4'-dimethylaminobenzoyl)-indan-2-carboxylate.
Diagnosis: Painful episode against a background of arthrosis of the cervical spine
Treatment: 600 mg/day for 3 weeks
Diagnosis: Pains in the right hip when pressure applied, secondary to aseptic osteonecrosis
Treatment: 600 mg/day for 15 days
Diagnosis: Arthrosis of the right hip resembling Paget's Disease

[6] = Case 1, oral 200 mg, before treatment 100%
[7] = Case 2, oral 200 mg, before treatment 100%
[8] = Case 3, oral 200 mg, before treatment 100%
[9] = Case 1, arthrosis of the cervical spine, oral 600 mg/day for 3 weeks
[10] = Case 1, oral 600 mg/day for 3 weeks
[11] = Case 2, hip pain secondary to aseptic osteonecrosis, oral 600 mg/day for 15 days
[12] = Case 2, oral 600 mg/day for 15 days
[13] = Case 3, arthrosis of the right hip, oral 600 mg/day for 15 days
[14] = Case 3, oral 600 mg/day for 15 days

CCN(CC)CCOC(=O)C1Cc2ccc(C(=O)c3cccs3)cc2C1 (centres unmarked) [2'-(N,N-diethylaminoethyl) 5-(2'-thenoyl)-indan-2-carboxylate]
second phase of aggregation with ADP (platelet aggregation; Case 1, oral 200 mg): Inhibition | Aggregation with collagen, 1 h after taking 200 mg (platelet aggregation; [6]): 0% | Aggregation with collagen, 3 h after taking 200 mg (platelet aggregation; [6]): 0% | Aggregation with collagen 24 hours after the last dose (platelet aggregation; Case 1, oral, 24 h after last dose, before treatment 100%): 10% | second phase of aggregation with ADP (platelet aggregation; Case 2, oral 200 mg): 0% | Aggregation with collagen, 1 h after taking 200 mg (platelet aggregation; [7]): 10% | Aggregation with collagen, 3 h after taking 200 mg (platelet aggregation; [7]): 10% | Aggregation with collagen 24 hours after last dose (platelet aggregation; Case 2, oral, 24 h after last dose, before treatment 100%): 15% | second phase of aggregation with ADP (platelet aggregation; Case 3, oral 200 mg): Inhibition | Aggregation with collagen, 1 h after taking 200 mg (platelet aggregation; [8]): 0% | Aggregation with collagen, 3 h after taking 200 mg (platelet aggregation; [8]): 0% | Aggregation with collagen 24 hours after last dose (platelet aggregation; Case 3, oral, 24 h after last dose, before treatment 100%): 0%

COC(=O)C1Cc2ccc(C(=O)c3ccc(N(C)C)cc3)cc2C1 (centres unmarked) [Methyl 5-(4'-dimethylaminobenzoyl)-indan-2-carboxylate]
LD50 [1]: 1450 mg/kg | ED50 [2]: 2.5 mg/kg | ED30 [3]: 12 mg/kg | ED50 [4]: 24 mg/kg | minimal effective concentration (platelets): 0.25 µg/mL | Conclusion [5, 9]: Good result | Length of relief [5, 9]: 4 h | Time taken to relieve pain [5, 9]: 30 min | Tolerance, Biological [5, 10]: NAD | Tolerance, Clinical [5, 10]: NAD (Nothing Abnormal Discovered) | Conclusion [5, 11]: Very good result | Length of relief [5, 11]: 4 h | Time to relieve pain [5, 11]: less than 15 minutes | Tolerance, Biological [5, 12]: NAD | Tolerance, Clinical [5, 12]: NAD | Conclusion [5, 13]: Good result | Length of relief [5, 13]: 2 h | Time to relieve pain [5, 13]: 30 min | Tolerance, Biological [5, 14]: NAD | Tolerance, Clinical [5, 14]: NAD
